Read-outs that look alike come from different tables or passages of the source.
Experiments:
[1] = Chemical stability (thermal, aqueous solution); format: physicochemical
Description: Most of these compounds are relatively stable. […] Its chemical behaviour resembles that of known 2-oxazoline derivatives. […] The formation of the decomposition products can be monitored with ^1H-NMR by inspection at two regions δ 3.3-3.5 (appearance of two doublets) and 1.9-2.0 ppm (appearance of two additional singlets).
The expected decomposition pattern (when e.g., X is O and Y is N) involves opening of the oxazoline ring to form both amide and ester as shown in Scheme E, in which the quinuclidine-derived compounds are depicted illustratively. The formation of two new singlets at δ 1.9-2.0 ppm as expected for R = Me of these two structures are in agreement with this supposition. [drawing 32]
Ring opening is much faster in the presence of dilute hydrochloric acid. […] The tendency to decomposition of such salts complicates the optical separation of compounds such as AF125 and AF123. However, this problem can be overcome by using the method described for the optical separation of the enantiomers of AF125, or alternatively the amino-alcohols such as 3-aminomethylquinuclidin-3-ol can be resolved and the separated enantiomers can then be cyclized using an ester or imidate as already described. In yet another alternative the N-acyl derivatives of (e.g.) 3-aminomethylquinuclidin-3-ol can be resolved and the separated enantiomers can then be cyclized per se as shown in Scheme K: [drawing 33] […]

[2] = test system: Male white mice of the CD-1 strain; assay: Pharmacodynamic profile and general toxicity, Part B (signs, mortality, LD50); format: in vivo; parameters: key to Altered spontaneous motor activity (Mot): increased (inc); decreased (dec); key to Piloerection (Pil) / Hypothermia (Hyp) / Salivation (Sal) / Lacrimation (Lac) / Diarrhea (Dia) / Mydriasis (Myd): sli = slight; mod = moderate; sev = severe; settings: for Analgesia (Ana) / Convulsive seizure (Con) / Respiratory distress (Res) / Tremors (Tre): animals affected/treated
Description: Male white mice of the CD-1 strain (Charles River, UK), within the body weight range of 18-26 g, were used throughout this study, carried out on AF123, AF125 and AF125(N).
Furthermore, these initial trials clearly established that the major signs of reactions to treatment consisted primarily of signs characteristic for potential cholinomimetic activity of the test material, such as tremors, salivation, lacrimation, diarrhea, analgesia, hypothermia and vasodilation. […]

[3] = target: T1, M1 muscarinic receptor (Rattus norvegicus, UniProt P08482); assay: Displacement of 3H-QNB from rat cerebral cortex, 50 mM phosphate buffer; format: binding
T1 sequence (P08482 1-460): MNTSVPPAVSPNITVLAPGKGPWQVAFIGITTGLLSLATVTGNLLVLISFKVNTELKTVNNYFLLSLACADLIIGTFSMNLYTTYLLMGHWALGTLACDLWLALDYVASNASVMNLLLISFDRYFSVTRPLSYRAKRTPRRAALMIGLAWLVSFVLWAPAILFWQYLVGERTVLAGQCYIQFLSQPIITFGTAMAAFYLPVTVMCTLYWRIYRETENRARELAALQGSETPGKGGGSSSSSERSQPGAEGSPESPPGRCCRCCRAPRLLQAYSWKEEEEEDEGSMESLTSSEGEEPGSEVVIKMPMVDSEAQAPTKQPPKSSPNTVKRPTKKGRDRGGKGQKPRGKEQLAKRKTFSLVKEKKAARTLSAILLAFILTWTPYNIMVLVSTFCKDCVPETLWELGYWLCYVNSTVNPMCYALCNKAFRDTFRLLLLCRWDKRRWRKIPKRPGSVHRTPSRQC

[4] = test system: muscarinic receptors; assay: (-)3H-QNB binding to rat cerebral cortex homogenates with and without Cu++ treatment

## CC1=NCC2(CN3CCC2CC3)O1 (racemic) [AF125, 2-Methyl-spiro(1,3 oxazoline-5,3')quinuclidine]
[1]
  thermal stability: thermally stable and can be distilled at 130° without decomposition
[2]; 5 mg/kg i.v.
  Altered spontaneous motor activity (Mot): dec
  Lacrimation (Lac): sli
  Mydriasis (Myd): sli
  Salivation (Sal): sli
  Analgesia (Ana): 5/5
  Convulsive seizure (Con): 0/5
  Respiratory distress (Res): 0/5
  Tremors (Tre): 0/5
[2]; 10 mg/kg i.v.
  Altered spontaneous motor activity (Mot): dec
  Diarrhea (Dia): sli
  Hypothermia (Hyp): sli
  Lacrimation (Lac): sli
  Mydriasis (Myd): sli
  Piloerection (Pil): sli
  Salivation (Sal): mod
  Analgesia (Ana): 5/5
  Convulsive seizure (Con): 0/5
  Respiratory distress (Res): 0/5
  Tremors (Tre): 0/5
[2]; 10 mg/kg p.os
  Convulsive seizure (Con): 0/5
  Respiratory distress (Res): 0/5
  Tremors (Tre): 0/5
[2]; 20 mg/kg i.v., Table 9
  Altered spontaneous motor activity (Mot): dec
  Diarrhea (Dia): mod
  Hypothermia (Hyp): mod
  Lacrimation (Lac): sev
  Mydriasis (Myd): mod
  Piloerection (Pil): mod
  Salivation (Sal): sev
  Analgesia (Ana): 5/5
  Convulsive seizure (Con): 0/5
  Respiratory distress (Res): 1/5
  Tremors (Tre): 2/5
[2]; 20 mg/kg p.os
  Lacrimation (Lac): sli
  Salivation (Sal): sli
  Analgesia (Ana): 0/5
  Convulsive seizure (Con): 0/5
  Respiratory distress (Res): 0/5
  Tremors (Tre): 0/5
[2]; 40 mg/kg i.v.
  Altered spontaneous motor activity (Mot): dec
  Diarrhea (Dia): mod
  Hypothermia (Hyp): mod
  Lacrimation (Lac): sev
  Mydriasis (Myd): mod
  Piloerection (Pil): mod
  Salivation (Sal): sev
  Analgesia (Ana): 5/5
  Convulsive seizure (Con): 1/5
  Respiratory distress (Res): 3/5
  Tremors (Tre): 5/5
[2]; 40 mg/kg p.os
  Altered spontaneous motor activity (Mot): dec
  Diarrhea (Dia): sli
  Hypothermia (Hyp): sli
  Lacrimation (Lac): mod
  Piloerection (Pil): sli
  Salivation (Sal): sli
  Analgesia (Ana): 3/5
  Convulsive seizure (Con): 0/5
  Respiratory distress (Res): 0/5
  Tremors (Tre): 0/5
[2]; 50 mg/kg p.os
  Altered spontaneous motor activity (Mot): dec
  Diarrhea (Dia): sli
  Hypothermia (Hyp): sli
  Lacrimation (Lac): mod
  Mydriasis (Myd): sli
  Piloerection (Pil): mod
  Salivation (Sal): mod
  Analgesia (Ana): 5/5
  Convulsive seizure (Con): 0/5
  Respiratory distress (Res): 0/5
  Tremors (Tre): 2/5
[2]; Intravenous Injection, 95% Confidence Limits 66.6 - 71.2
  LD50: 68.9 mg/kg
[2]; Oral Administration, 95% Confidence Limits 118.4 - 152.5
  LD50: 134.4 mg/kg

## CC1=NCC2(CCN(C)CC2)O1 [AF150, 2-Methyl-spiro(1,3-oxazoline-5,4')-1'-methylpiperidine]
[3]; KH2 cerebellum : KH1 cortex (3H-QNB)
  RATIOS c:a: 3.5
[3]; KL1 : KH1 cortex (3H-QNB)
  RATIOS b:a: 49
[3]; KL2 cerebellum : KL1 cortex (3H-QNB)
  RATIOS d:b: 17
[3]; cortex, Table 5
  % H1: 13%
  % L1: 87%
[4]; with Cu++ pretreatment (100 µM, 30 minutes)
  %H (% of high affinity state): 37%
[4]; with Cu++ pretreatment (100 µM, 30 minutes), listed as 5
  %H (% of high affinity state): 37±2%
[4]; with Cu++ pretreatment (100 µM, 30 minutes), read-out: KH
  Ki: 0.52 ± 0.003 µM
[4]; with Cu++ pretreatment (100 µM, 30 minutes), read-out: KL
  Ki: 18 ± 2 µM
[4]; without pretreatment
  %H (% of high affinity state): 14%
[4]; without pretreatment, listed as 5
  %H (% of high affinity state): 14±1%
[4]; without pretreatment, read-out: KH
  Ki: 0.32 µM
[4]; without pretreatment, read-out: KL
  Ki: 33.5 µM

From EP0452101B1, “Spiro bridged and unbridged heterocyclic compounds” (ISRAEL INSTITUTE FOR BIOLOGICAL RESEARCH, priority 1990, dated 1991)
